According to patent US5583108A, “Vasonatrin peptide and analogs thereof” (Mayo Foundation for Medical Education and Research, priority 1994, dated 1996):

Legend:
[1] = tested on: isolated normal canine blood vessels; assay: Organ chamber isometric force: relaxation of phenylephrine-contracted vessel rings; parameters: species or system dog; conditions: for relaxation: maximal dose (3×10^-6 M); for maximal response, percent change in tension from a contraction to phenylephrine: peptide 3 × 10^-6 M, mean ± SEM
Experimental: (§1) The results obtained are expressed as the means ±SEM. In organ chamber studies, n equals the number of dogs from which rings were taken. Rings with and without endothelium were studied in parallel, and Student's t-test for unpaired observations was used to determine statistical significance among the responses of rings with and without endothelium and between responses of arteries and veins. In rat studies, the data were analyzed using ANOVA for repeated measures followed by Fisher's least significant difference test when appropriate within the group. Data between groups were analyzed by Student's unpaired t-test. Statistical significance was determined at p<0.05.
Rings cut from femoral, saphenous, renal and pulmonary arteries and veins obtained from random source mongrel dogs (anesthetized with 30 mg/kg pentobarbital sodium intravenously) were suspended for the measurement of isometric force in organ chambers filled with aerated (95% O2 and 5% CO2) modified Krebs-Ringer bicarbonate solution (composition in mM: 118.3 NaCl, 4.7 KCl, 2.5 CaCl2, 1.2 MgSO4, 1.2 KH2 PO4, 25.0 NaHCO3, 0.026 calcium sodium EDTA, and 11.1 dextrose; control solution) at 37° C. In one-half rings, the endothelium was removed by gently rubbing the intimal surface with a cotton swab wetted with control solution. Each ring was stretched to the optimal point on its length-tension curve as determined by the tension developed to norepinephrine (3×10^-7 M) at each level of stretch. The presence of endothelium was determined at the beginning of the experiment by a relaxation to acetylcholine (10^-6 M) during a contraction to norepinephrine at optimal length. The maximal tension of each ring was determined by norepinephrine (10^-4 M). To study responses to ANP, CNP and VNP, the rings were contracted with phenylephrine (10^-6 M). These contractions averaged 30-40% of the maximal contraction to norepinephrine. The peptides were added cumulatively once the contraction had stabilized.
The following commercially available drugs were used: acetylcholine chloride (Sigma Chemical, St. Louis, Mo.), human ANP and human CNP (Peninsula Laboratories, Belmont, Calif.), L-norepinephrine bitartrate (Sigma), phenylephrine bitartrate (Sigma). All drugs were dissolved in distilled water immediately prior to study, and the concentrations are reported as the final molar concentration (M) in the organ chamber.

normal rats = assay: Cardiorenal actions after intravenous bolus in anesthetized normal rats; assay type: in vivo, Wistar rats; conditions: for MAP mean arterial pressure / HR heart rate / RAP right atrial pressure / UKV urine potassium excretion / UNaV urine sodium excretion / UV urine volume / UcGMPV urine cGMP volume / PcGMP plasma cGMP: mean ± SEM; for MAP mean arterial pressure: n = 4
Experimental: as §1
Experiments were conducted in accordance with the Animal Welfare Act. Wistar rats and spontaneously hypertensive rats (SHR) (400 g; Harlan Sprague-Dawley, Indianapolis, Ind.) were anesthetized with Inactin (100 mg/kg; intraperitoneal; BYK Gulden, Konstanz, Germany). The body temperature was maintained between 36° and 38° C. by a heating pad. Tracheostomy was performed; however, the animals were not artificially ventilated. Polyethylene catheters (PE-50; Becton Dickinson Co., Parsippany, N.J.) were placed in the left Jugular vein for infusions of saline and drugs, in the right jugular vein to right atrium to monitor right atrial pressure, and in the carotid artery for the collection of blood samples and to monitor mean arterial pressure. A PE-90 catheter was placed in the bladder for urine collection.
Experiments were conducted in three groups in normal rats: ANP group (n=4), CNP group (n=4), and VNP group (n=4). VNP also was studied in SHR rats (n=4). Intravenous infusions of saline solution (0.9% NaCl) were performed (1 ml/100 gm body weight/hr) through the left jugular vein catheter. After completion of surgery, rats were allowed to stabilize for 30 minutes. In each group, a 15-min baseline period followed. After the baseline period, saline solution (0.9% NaCl) was administered in a bolus fashion (0.1 ml) and was followed by a 15-min period. After the saline period, the peptide (ANP, CNP or VNP) was administered in a bolus fashion (0.1 ml) at 5 μg/kg which was followed by a 15-min period. This was followed by a second bolus (0.1 ml) at 50 μg/kg and a 15-min period. After a 30-min washout, a 15-min recovery period followed. During each experimental period, mean arterial pressure (MAP), heart rate (HR), and right atrial pressure (RAP) were measured. At the midpoint of baseline, second bolus fashion (50 μg/kg) and recovery periods, blood was sampled for plasma cGMP. At the end of each period, urine was measured for volume (UV), and samples were stored for electrolytes and cGMP analysis.
Blood for plasma cGMP analysis was collected into EDTA tubes, immediately placed on ice, and centrifuged at […] at 4° C. Plasma was separated and stored at -20° C. until assay. Urine for cGMP determination was heated to >90° C. before storage. Plasma and urine cGMP were determined by a specific RIA as previously described by A. L. Steiner et al., J. Hypertension, 5 (Suppl. 5) 551-553 (1987).

[2] = normal rats, high dose (50 μg/kg) bolus

CC[C@H](C)[C@@H]1NC(=O)[C@H](CCCNC(=N)N)NC(=O)[C@H](CC(=O)O)NC(=O)[C@H](CC(C)C)NC(=O)[C@H](CCCCN)NC(=O)[C@H](CC(C)C)NC(=O)CNC(=O)[C@H](Cc2ccccc2)NC(=O)[C@@H](NC(=O)CNC(=O)[C@H](CCCCN)NC(=O)[C@H](CO)NC(=O)[C@H](CC(C)C)NC(=O)CN)CSSC[C@@H](C(=O)O)NC(=O)CNC(=O)[C@H](CC(C)C)NC(=O)CNC(=O)[C@H](CO)NC(=O)[C@H](CCSC)NC(=O)[C@H](CO)NC(=O)CNC1=O [CNP, C-type natriuretic peptide]
relaxation ([1]; femoral and saphenous arteries): no effects
maximal response, percent change in tension from a contraction to phenylephrine ([1]; femoral artery, with endothelium, phenylephrine 10^-6 M): 4 ± 3%
maximal response, percent change in tension from a contraction to phenylephrine ([1]; femoral artery, without endothelium): 10 ± 6%
maximal response, percent change in tension from a contraction to phenylephrine ([1]; femoral vein, with endothelium): 37 ± 8%
maximal response, percent change in tension from a contraction to phenylephrine ([1]; femoral vein, without endothelium): 73 ± 8%
relaxation ([1]; femoral veins): 90%
maximal response, percent change in tension from a contraction to phenylephrine ([1]; pulmonary artery, with endothelium): 12 ± 3%
maximal response, percent change in tension from a contraction to phenylephrine ([1]; pulmonary artery, without endothelium): 33 ± 5%
maximal response, percent change in tension from a contraction to phenylephrine ([1]; pulmonary vein, with endothelium): 31 ± 6%
maximal response, percent change in tension from a contraction to phenylephrine ([1]; pulmonary vein, without endothelium): 66 ± 4%
maximal response, percent change in tension from a contraction to phenylephrine ([1]; renal artery, with endothelium): 8 ± 2%
maximal response, percent change in tension from a contraction to phenylephrine ([1]; renal artery, without endothelium): 8 ± 2%
maximal response, percent change in tension from a contraction to phenylephrine ([1]; renal vein, with endothelium): 43 ± 4%
maximal response, percent change in tension from a contraction to phenylephrine ([1]; renal vein, without endothelium): 71 ± 5%
maximal response, percent change in tension from a contraction to phenylephrine ([1]; saphenous artery, with endothelium): 11 ± 7%
maximal response, percent change in tension from a contraction to phenylephrine ([1]; saphenous artery, without endothelium): 14 ± 8%
maximal response, percent change in tension from a contraction to phenylephrine ([1]; saphenous vein, with endothelium): 16 ± 1%
maximal response, percent change in tension from a contraction to phenylephrine ([1]; saphenous vein, without endothelium): 43 ± 10%
relaxation ([1]; saphenous veins): 40%
relaxation, % of the contraction to phenylephrine ([1]; systemic arteries (femoral, saphenous and renal)): less than 30%
natriuretic action (in words) (normal rats; in vivo, rat): modest but significant natriuretic actions
change in MAP and RAP (in words) (normal rats; [2]): significant decrease
change in urine flow, sodium excretion, plasma cGMP and urinary cGMP volume (in words) (normal rats; [2]): increased
MAP mean arterial pressure (normal rats; normal rats, iv bolus 5 μg/kg, 15-min period): 100 ± 12 mmHg
HR heart rate (normal rats; normal rats, iv bolus 5 μg/kg): 363 ± 19 beats/min
RAP right atrial pressure (normal rats; normal rats, iv bolus 5 μg/kg): 0 ± 1.5 mmHg
UKV urine potassium excretion (normal rats; normal rats, iv bolus 5 μg/kg): 5.1 ± 1.6 µmol/min
UNaV urine sodium excretion (normal rats; normal rats, iv bolus 5 μg/kg): 4.1 ± 1.4 µmol/min
UV urine volume (normal rats; normal rats, iv bolus 5 μg/kg): 27.6 ± 2.0 µL/min
UcGMPV urine cGMP volume (normal rats; normal rats, iv bolus 5 μg/kg): 97 ± 32 pmol/min
HR heart rate (normal rats; normal rats, iv bolus 50 μg/kg): 365 ± 19 beats/min
PcGMP plasma cGMP (normal rats; normal rats, iv bolus 50 μg/kg): 19.4 ± 2.7 pmol/mL
RAP right atrial pressure (normal rats; normal rats, iv bolus 50 μg/kg): -2.3 ± 0.6 mmHg
UKV urine potassium excretion (normal rats; normal rats, iv bolus 50 μg/kg): 7.6 ± 2.5 µmol/min
UNaV urine sodium excretion (normal rats; normal rats, iv bolus 50 μg/kg): 12.1 ± 3.2 µmol/min
UV urine volume (normal rats; normal rats, iv bolus 50 μg/kg): 66.4 ± 7.4 µL/min
UcGMPV urine cGMP volume (normal rats; normal rats, iv bolus 50 μg/kg): 323 ± 81 pmol/min
MAP mean arterial pressure (normal rats; normal rats, recovery period after 30-min washout): 104 ± 11 mmHg
HR heart rate (normal rats; normal rats, recovery period): 363 ± 16 beats/min
PcGMP plasma cGMP (normal rats; normal rats, recovery period): 3.6 ± 0.3 pmol/mL
RAP right atrial pressure (normal rats; normal rats, recovery period): -0.1 ± 0.9 mmHg
UKV urine potassium excretion (normal rats; normal rats, recovery period): 2.4 ± 1.1 µmol/min
UNaV urine sodium excretion (normal rats; normal rats, recovery period): 2.9 ± 0.3 µmol/min
UV urine volume (normal rats; normal rats, recovery period): 21.2 ± 6.3 µL/min
UcGMPV urine cGMP volume (normal rats; normal rats, recovery period): 70 ± 39 pmol/min
MAP mean arterial pressure (normal rats; normal rats, second iv bolus 50 μg/kg, 15-min period): 87 ± 9 mmHg
